ChEMBL document CHEMBL1201862, “PubChem BioAssay data set” (2004)
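Cultured in 96-well plates, cells were exposed to test compound for 48 hours across five concentrations. GI50 marks 50% less growth.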 Active and inactive are the calls of the source. Rule as the data show it: active = GI50 up to about 1.1 µM and inactive = higher.

Experiments:
Test in all cases: NCI anticancer screen, dose series, 48 h
A549 = tested on: A549
ACHN = tested on: ACHN
CAKI-1 = tested on: CAKI-1
DLD-1 = tested on: DLD-1
HCC 2998 = tested on: HCC 2998
HOP-62 = tested on: HOP-62
HT-29 = tested on: HT-29
K562 = tested on: K562
MOLT-4 = tested on: MOLT-4
SK-OV-3 = tested on: SK-OV-3
TK-10 = tested on: TK-10
UACC-257 = tested on: UACC-257
EKVX = tested on: EKVX
RXF 393 = tested on: RXF 393
U-251 = tested on: U-251
BT-549 = tested on: BT-549
DU-145 = tested on: DU-145
MDA-MB-231 = tested on: MDA-MB-231
MDA-MB-435 = tested on: MDA-MB-435
MDA-N = tested on: MDA-N

SMILES | GI50 (A549) | GI50 (ACHN) | GI50 (CAKI-1) | GI50 (DLD-1) | GI50 (HCC 2998) | GI50 (HOP-62) | GI50 (HT-29) | GI50 (K562) | GI50 (MOLT-4) | GI50 (SK-OV-3) | GI50 (TK-10) | GI50 (UACC-257) | GI50 (EKVX) | GI50 (RXF 393) | GI50 (U-251) | GI50 (BT-549) | GI50 (DU-145) | GI50 (MDA-MB-231) | GI50 (MDA-MB-435) | GI50 (MDA-N)
NC(=O)C(=O)C1C(=O)N(c2ccccc2)N=C1N (stereo not given) | > 100 µM (inactive) | 49.4 µM (inactive) | > 100 µM (inactive) | > 100 µM (inactive) | > 100 µM (inactive) | > 100 µM (inactive) | > 100 µM (inactive) | > 100 µM (inactive) | > 100 µM (inactive) | > 100 µM (inactive) | > 100 µM (inactive) | > 100 µM (inactive) | – | – | – | – | – | – | – | –
CC(C)C(C(=O)O)N(CC1(O)OCC(O)C(O)C1O)N=O (stereo not given) | > 100 µM (inactive) | > 100 µM (inactive) | – | > 100 µM (inactive) | > 100 µM (inactive) | > 100 µM (inactive) | > 100 µM (inactive) | > 100 µM (inactive) | > 100 µM (inactive) | > 100 µM (inactive) | > 100 µM (inactive) | > 100 µM (inactive) | > 100 µM (inactive) | > 100 µM (inactive) | > 100 µM (inactive) | – | – | – | – | –
CN(C)c1ccc(/C(F)=C(F)/C(F)=C(F)/C(F)=C(\F)c2ccc(Br)cc2)cc1 | 31.5 µM (inactive) | 52.8 µM (inactive) | 18.7 µM (inactive) | – | 18.2 µM (inactive) | 37.2 µM (inactive) | 27.5 µM (inactive) | 13.2 µM (inactive) | 25.6 µM (inactive) | 30.1 µM (inactive) | > 75.5 µM (inactive) | > 74.1 µM (inactive) | 22.9 µM (inactive) | 9.2 µM (inactive) | 17.5 µM (inactive) | 31.8 µM (inactive) | 19.4 µM (inactive) | 39.5 µM (inactive) | 3.1 µM (inactive) | 2.43 µM (inactive)
CC(C)OC(=O)c1cccnc1/C=N/O | > 100 µM (inactive) | > 100 µM (inactive) | > 100 µM (inactive) | > 100 µM (inactive) | > 100 µM (inactive) | > 100 µM (inactive) | > 100 µM (inactive) | > 100 µM (inactive) | > 100 µM (inactive) | > 100 µM (inactive) | > 100 µM (inactive) | > 100 µM (inactive) | > 100 µM (inactive) | – | > 100 µM (inactive) | – | – | – | – | –
CCC1CCCCN1CC(C(C)=O)C(c1ccccc1)c1c(O)c2ccccc2oc1=O (stereo not given) | > 100 µM (inactive) | > 100 µM (inactive) | > 100 µM (inactive) | > 100 µM (inactive) | – | > 100 µM (inactive) | > 100 µM (inactive) | > 100 µM (inactive) | > 100 µM (inactive) | > 100 µM (inactive) | > 100 µM (inactive) | > 100 µM (inactive) | > 100 µM (inactive) | > 100 µM (inactive) | > 100 µM (inactive) | – | – | – | – | –
CCOC(=O)Cc1c(C(=O)OCC)[n+]([O-])c2cc(Cl)c(Cl)cc2[n+]1[O-] | 1.76 µM (inactive) | 1.76 µM (inactive) | 2.97 µM (inactive) | – | 1.99 µM (inactive) | 1.95 µM (inactive) | 1.94 µM (inactive) | 2.62 µM (inactive) | 1.56 µM (inactive) | 3.77 µM (inactive) | 1.28 µM (inactive) | 2.22 µM (inactive) | 3.37 µM (inactive) | 2.12 µM (inactive) | 2.96 µM (inactive) | 2.45 µM (inactive) | 1.69 µM (inactive) | 2.69 µM (inactive) | 2.77 µM (inactive) | 2.62 µM (inactive)
C/C=C/C=C/C1=NN(c2cccc(S(=O)(=O)O)c2)C2(C1)C(Cl)C(=O)N2c1nc2ccccc2s1 (stereo not given) | 14.6 µM (inactive) | 15.4 µM (inactive) | 8.24 µM (inactive) | – | 16.9 µM (inactive) | 14.7 µM (inactive) | 17 µM (inactive) | 28.8 µM (inactive) | 28.6 µM (inactive) | 19.2 µM (inactive) | 14.3 µM (inactive) | 15.4 µM (inactive) | 16.4 µM (inactive) | 6.3 µM (inactive) | 9.55 µM (inactive) | 17.7 µM (inactive) | 13.4 µM (inactive) | 14.5 µM (inactive) | 13.4 µM (inactive) | 15.5 µM (inactive)
CN1C(NN)=NS(=O)(=O)c2ccccc21 | > 100 µM (inactive) | > 100 µM (inactive) | > 100 µM (inactive) | – | > 100 µM (inactive) | > 100 µM (inactive) | > 100 µM (inactive) | > 100 µM (inactive) | > 100 µM (inactive) | > 100 µM (inactive) | > 100 µM (inactive) | > 100 µM (inactive) | > 100 µM (inactive) | > 100 µM (inactive) | > 100 µM (inactive) | > 100 µM (inactive) | > 100 µM (inactive) | > 100 µM (inactive) | > 100 µM (inactive) | > 100 µM (inactive)
CCCCOc1ccc(/C=C/C2=[N+](CCO)CCO2)cc1 | 55.3 µM (inactive) | 91.6 µM (inactive) | 67.5 µM (inactive) | – | 22.5 µM (inactive) | > 100 µM (inactive) | 17.6 µM (inactive) | 24 µM (inactive) | 53 µM (inactive) | > 100 µM (inactive) | > 100 µM (inactive) | > 100 µM (inactive) | > 100 µM (inactive) | 17.9 µM (inactive) | 34.4 µM (inactive) | > 100 µM (inactive) | > 100 µM (inactive) | 61.9 µM (inactive) | > 100 µM (inactive) | > 100 µM (inactive)
CC1OC(OC2C(CO)OC(O[C@H]3CC[C@@]4(C)C(=CC[C@H]5[C@@H]6C[C@@H]7O[C@](O)(CC[C@H](CO)COC8OC(CO)C(O)C(O)C8O)[C@@H](C)[C@@H]7[C@@]6(C)CC[C@@H]54)C3)C(OC3OC(C)C(O)C(O)C3O)C2O)C(O)C(O)C1O (stereo not given in full) | > 100 µM (inactive) | > 100 µM (inactive) | > 100 µM (inactive) | – | > 100 µM (inactive) | > 100 µM (inactive) | > 100 µM (inactive) | > 100 µM (inactive) | > 100 µM (inactive) | > 100 µM (inactive) | > 100 µM (inactive) | > 100 µM (inactive) | > 100 µM (inactive) | > 100 µM (inactive) | > 100 µM (inactive) | > 100 µM (inactive) | > 100 µM (inactive) | > 100 µM (inactive) | > 100 µM (inactive) | > 100 µM (inactive)
CC1(C)CC2=NO[Se]3=C2C(=NO3)C1 | 3.42 µM (inactive) | 1.72 µM (inactive) | 3.65 µM (inactive) | – | 5.19 µM (inactive) | 2.99 µM (inactive) | 0.929 µM (active) | 2.72 µM (inactive) | 3.48 µM (inactive) | 4.52 µM (inactive) | 4.29 µM (inactive) | 2.17 µM (inactive) | 2.8 µM (inactive) | 3.15 µM (inactive) | 3.69 µM (inactive) | 1.47 µM (inactive) | 3.83 µM (inactive) | 4.19 µM (inactive) | 3.43 µM (inactive) | 1.95 µM (inactive)
COC(=O)C1C2OC(C)(C)OC2CN1S(=O)(=O)c1ccc(C)cc1 (stereo not given) | > 100 µM (inactive) | > 100 µM (inactive) | > 100 µM (inactive) | – | > 100 µM (inactive) | > 100 µM (inactive) | > 100 µM (inactive) | > 100 µM (inactive) | > 100 µM (inactive) | > 100 µM (inactive) | > 100 µM (inactive) | > 100 µM (inactive) | 8.04 µM (inactive) | > 100 µM (inactive) | > 100 µM (inactive) | > 100 µM (inactive) | > 100 µM (inactive) | > 100 µM (inactive) | > 100 µM (inactive) | > 100 µM (inactive)
COc1ccc2c3c1O[C@H](c1ccc(O)cc1)[C@H]3[N+](C)(C)CC2 | > 100 µM (inactive) | > 100 µM (inactive) | > 100 µM (inactive) | – | > 100 µM (inactive) | > 100 µM (inactive) | > 100 µM (inactive) | 34.1 µM (inactive) | > 100 µM (inactive) | > 100 µM (inactive) | > 100 µM (inactive) | > 100 µM (inactive) | > 100 µM (inactive) | > 100 µM (inactive) | > 100 µM (inactive) | > 100 µM (inactive) | > 100 µM (inactive) | > 100 µM (inactive) | > 100 µM (inactive) | > 100 µM (inactive)
O=C(O)c1nc(-c2ccccc2)ncc1-c1nnnn1-c1ccccc1 | > 100 µM (inactive) | > 100 µM (inactive) | > 100 µM (inactive) | – | > 100 µM (inactive) | > 100 µM (inactive) | > 100 µM (inactive) | > 100 µM (inactive) | > 100 µM (inactive) | > 100 µM (inactive) | > 100 µM (inactive) | > 100 µM (inactive) | > 100 µM (inactive) | > 100 µM (inactive) | > 100 µM (inactive) | > 100 µM (inactive) | > 100 µM (inactive) | > 100 µM (inactive) | > 100 µM (inactive) | > 100 µM (inactive)
Cc1ccc(/N=N/c2c(C)nn(-c3ccccc3)c2-c2ccccc2)c(Br)c1 | > 100 µM (inactive) | 53.8 µM (inactive) | > 100 µM (inactive) | 57.4 µM (inactive) | 61.8 µM (inactive) | > 100 µM (inactive) | 27.6 µM (inactive) | 25.4 µM (inactive) | 8.15 µM (inactive) | > 100 µM (inactive) | > 100 µM (inactive) | 79.8 µM (inactive) | > 100 µM (inactive) | – | – | – | – | – | – | –
N#C/C(=C1\SC(C(N)=O)=C(N)N1c1ccccc1)c1nc2ccccc2[nH]1 | > 100 µM (inactive) | > 100 µM (inactive) | > 100 µM (inactive) | > 100 µM (inactive) | – | > 100 µM (inactive) | 82.8 µM (inactive) | > 100 µM (inactive) | > 100 µM (inactive) | > 100 µM (inactive) | 87.9 µM (inactive) | > 100 µM (inactive) | > 100 µM (inactive) | – | > 100 µM (inactive) | – | – | – | – | –
